Measurements as given in US8389500B2, “Fused heterocyclic compounds as ion channel modulators” (Gilead Sciences, Inc., priority 2008, dated 2013).

Assays:
[1] = molecular target: T1, wild-type human cardiac sodium channel, hNav1.5 (late sodium current) (Homo sapiens, UniProt Q14524); test: Late INa screening assay (PatchXpress whole cell patch clamp); type: cell-based; conditions: HEK293 hNav1.5, late INa generated with 10 μM Tefluthrin (some experiments 50 nM ATX II); for inhibition at 10 µM: 10 μM test compound, read-out: Late INa % blk (10 μM test cmpd); for inhibition at 1 µM: 1 μM test compound, read-out: Late INa % blk (1 μM test cmpd)
T1 construct: host or cells: HEK293
In short: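 Late sodium current block was assessed by automated whole cell patch clamp on a PatchXpress 7000A using HEK293 cells stably expressing wild-type human hNav1.5 without beta subunits. Late current was induced with 10 μM Tefluthrin or 50 nM ATX II. Channels were stepped from −120 mV to −20 mV for 250 ms at 0.1 Hz at 24-27° C. Current was normalized to 0Na baseline and expressed as percent block.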

[2] = molecular target: T2, hERG potassium channel (Homo sapiens, UniProt Q12809); test: hERG screening assay (PatchXpress patch clamp, CHO cells); type: cell-based; conditions: hERG in CHO cells, peak current at −50 mV; for hERG Patch Clamp hERG % blk 1 μm: 1 μm test compound; for hERG Patch Clamp hERG % blk 10 μm: 10 μm test compound
T2 construct: expressed in transfected cells; host or cells: CHO (Chinese Hamster Ovary)
Experimental: Compounds were screened to test their activity in blocking the hERG potassium channel. The hERG channel is heterologously expressed in a CHO (Chinese Hamster Ovary) cell line. Cells are maintained with standard tissue culture procedures and stable channel expression is maintained with 500 μg/ml G418 in the culture medium. Cells are harvested for testing on the PatchXpress automated patch clamp with Accumax (Innovative Cell Technologies, San Diego, Calif.) to isolate single cells.
The following solutions are used for electrophysiological recordings. The external solution contains: 2 mM CaCl2; 2 mM MgCl2; 4 mM KCl; 150 mM NaCl; 10 mM Glucose; 10 mM HEPES (pH 7.4 with 1M NaOH, osmolarity). The internal solution contains: 140 mM KCl, 10 mM MgCl2, 6 mM EGTA, 5 mM HEPES, 5 mM ATP (pH adjusted to 7.25 with KOH).
hERG channels are activated when the voltage is stepped to +20 mV from the −80 mV holding potential. During a 5 second step at +20 mV, the channels activate and then largely inactivate, so the currents are relatively small. Upon returning to −50 mV from +20 mV, hERG currents transiently become much larger as inactivation is rapidly removed and then the channel closes. The first step to −50 mV for 300 ms is used as a baseline for measuring the peak amplitude during the step to −50 mV after channel activation. The peak current at −50 mV is measured both under control conditions and after addition of compound.
All compounds are prepared as 10 mM DMSO stocks in glass vials. Stock solutions are mixed by vigorous vortexing and sonication for about 2 minutes at room temperature. For testing, compounds are diluted in glass vials using an intermediate dilution step in pure DMSO and then further diluted to working concentrations in external solution. Dilutions are prepared no longer than 20 minutes before use.
After achieving the whole-cell configuration, cells are monitored for 90 seconds to assess stability and washed with external solution for 66 seconds. The voltage protocol described above is then applied to the cells every 12 seconds and throughout the whole procedure. Only cells with stable recording parameters and meeting specified health criteria are allowed to enter the compound addition procedure.
External solution containing 0.1% DMSO (vehicle) is applied to the cells first to establish the control peak current amplitude. After allowing the current to stabilize for 3 to 5 minutes, 1 μM and then 10 μM test compounds are applied. Each compound concentration is added 4 times and cells are kept in test solution until the effect of the compound reaches steady state or for a maximum of 12 minutes. After addition of test compound, a positive control (1 μM Cisapride) is added and must block >95% of the current for the experiment to be considered valid. Washout in the external solution compartment is performed until the recovery of the current reaches steady state. Data are analyzed using DataXpress, Clampfit (Molecular Devices, Inc., Sunnyvale) and Origin 7 (Originlab Corp.)

T2 sequence (Q12809 whole entry): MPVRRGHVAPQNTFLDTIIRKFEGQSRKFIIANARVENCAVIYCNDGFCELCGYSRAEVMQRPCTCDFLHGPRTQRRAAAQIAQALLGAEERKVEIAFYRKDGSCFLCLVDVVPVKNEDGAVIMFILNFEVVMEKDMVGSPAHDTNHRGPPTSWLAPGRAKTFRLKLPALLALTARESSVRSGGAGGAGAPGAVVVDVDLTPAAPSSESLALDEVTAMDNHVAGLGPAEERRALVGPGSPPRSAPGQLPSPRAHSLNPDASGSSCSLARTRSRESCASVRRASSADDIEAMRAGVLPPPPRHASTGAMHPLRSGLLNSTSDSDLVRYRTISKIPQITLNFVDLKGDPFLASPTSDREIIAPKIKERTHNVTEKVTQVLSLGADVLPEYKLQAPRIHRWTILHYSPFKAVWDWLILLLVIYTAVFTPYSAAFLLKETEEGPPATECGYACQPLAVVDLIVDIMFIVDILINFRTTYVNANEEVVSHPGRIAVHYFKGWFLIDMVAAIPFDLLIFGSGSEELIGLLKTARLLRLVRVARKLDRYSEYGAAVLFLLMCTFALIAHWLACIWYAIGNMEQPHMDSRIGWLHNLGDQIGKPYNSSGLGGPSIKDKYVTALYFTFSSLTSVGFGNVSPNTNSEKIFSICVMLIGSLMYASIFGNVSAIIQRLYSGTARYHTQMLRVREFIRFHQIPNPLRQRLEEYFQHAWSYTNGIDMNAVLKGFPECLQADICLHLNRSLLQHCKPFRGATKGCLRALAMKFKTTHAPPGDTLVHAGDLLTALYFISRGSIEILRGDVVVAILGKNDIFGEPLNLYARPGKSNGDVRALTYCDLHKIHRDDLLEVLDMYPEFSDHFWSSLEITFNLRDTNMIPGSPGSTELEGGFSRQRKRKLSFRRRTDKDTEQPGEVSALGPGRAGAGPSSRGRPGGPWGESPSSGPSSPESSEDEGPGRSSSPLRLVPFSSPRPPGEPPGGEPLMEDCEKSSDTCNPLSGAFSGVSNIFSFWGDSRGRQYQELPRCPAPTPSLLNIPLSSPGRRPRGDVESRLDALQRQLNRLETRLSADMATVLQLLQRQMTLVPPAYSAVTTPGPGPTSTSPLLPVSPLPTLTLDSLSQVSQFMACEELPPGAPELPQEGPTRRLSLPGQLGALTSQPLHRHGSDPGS
T1 sequence (Q14524 whole entry): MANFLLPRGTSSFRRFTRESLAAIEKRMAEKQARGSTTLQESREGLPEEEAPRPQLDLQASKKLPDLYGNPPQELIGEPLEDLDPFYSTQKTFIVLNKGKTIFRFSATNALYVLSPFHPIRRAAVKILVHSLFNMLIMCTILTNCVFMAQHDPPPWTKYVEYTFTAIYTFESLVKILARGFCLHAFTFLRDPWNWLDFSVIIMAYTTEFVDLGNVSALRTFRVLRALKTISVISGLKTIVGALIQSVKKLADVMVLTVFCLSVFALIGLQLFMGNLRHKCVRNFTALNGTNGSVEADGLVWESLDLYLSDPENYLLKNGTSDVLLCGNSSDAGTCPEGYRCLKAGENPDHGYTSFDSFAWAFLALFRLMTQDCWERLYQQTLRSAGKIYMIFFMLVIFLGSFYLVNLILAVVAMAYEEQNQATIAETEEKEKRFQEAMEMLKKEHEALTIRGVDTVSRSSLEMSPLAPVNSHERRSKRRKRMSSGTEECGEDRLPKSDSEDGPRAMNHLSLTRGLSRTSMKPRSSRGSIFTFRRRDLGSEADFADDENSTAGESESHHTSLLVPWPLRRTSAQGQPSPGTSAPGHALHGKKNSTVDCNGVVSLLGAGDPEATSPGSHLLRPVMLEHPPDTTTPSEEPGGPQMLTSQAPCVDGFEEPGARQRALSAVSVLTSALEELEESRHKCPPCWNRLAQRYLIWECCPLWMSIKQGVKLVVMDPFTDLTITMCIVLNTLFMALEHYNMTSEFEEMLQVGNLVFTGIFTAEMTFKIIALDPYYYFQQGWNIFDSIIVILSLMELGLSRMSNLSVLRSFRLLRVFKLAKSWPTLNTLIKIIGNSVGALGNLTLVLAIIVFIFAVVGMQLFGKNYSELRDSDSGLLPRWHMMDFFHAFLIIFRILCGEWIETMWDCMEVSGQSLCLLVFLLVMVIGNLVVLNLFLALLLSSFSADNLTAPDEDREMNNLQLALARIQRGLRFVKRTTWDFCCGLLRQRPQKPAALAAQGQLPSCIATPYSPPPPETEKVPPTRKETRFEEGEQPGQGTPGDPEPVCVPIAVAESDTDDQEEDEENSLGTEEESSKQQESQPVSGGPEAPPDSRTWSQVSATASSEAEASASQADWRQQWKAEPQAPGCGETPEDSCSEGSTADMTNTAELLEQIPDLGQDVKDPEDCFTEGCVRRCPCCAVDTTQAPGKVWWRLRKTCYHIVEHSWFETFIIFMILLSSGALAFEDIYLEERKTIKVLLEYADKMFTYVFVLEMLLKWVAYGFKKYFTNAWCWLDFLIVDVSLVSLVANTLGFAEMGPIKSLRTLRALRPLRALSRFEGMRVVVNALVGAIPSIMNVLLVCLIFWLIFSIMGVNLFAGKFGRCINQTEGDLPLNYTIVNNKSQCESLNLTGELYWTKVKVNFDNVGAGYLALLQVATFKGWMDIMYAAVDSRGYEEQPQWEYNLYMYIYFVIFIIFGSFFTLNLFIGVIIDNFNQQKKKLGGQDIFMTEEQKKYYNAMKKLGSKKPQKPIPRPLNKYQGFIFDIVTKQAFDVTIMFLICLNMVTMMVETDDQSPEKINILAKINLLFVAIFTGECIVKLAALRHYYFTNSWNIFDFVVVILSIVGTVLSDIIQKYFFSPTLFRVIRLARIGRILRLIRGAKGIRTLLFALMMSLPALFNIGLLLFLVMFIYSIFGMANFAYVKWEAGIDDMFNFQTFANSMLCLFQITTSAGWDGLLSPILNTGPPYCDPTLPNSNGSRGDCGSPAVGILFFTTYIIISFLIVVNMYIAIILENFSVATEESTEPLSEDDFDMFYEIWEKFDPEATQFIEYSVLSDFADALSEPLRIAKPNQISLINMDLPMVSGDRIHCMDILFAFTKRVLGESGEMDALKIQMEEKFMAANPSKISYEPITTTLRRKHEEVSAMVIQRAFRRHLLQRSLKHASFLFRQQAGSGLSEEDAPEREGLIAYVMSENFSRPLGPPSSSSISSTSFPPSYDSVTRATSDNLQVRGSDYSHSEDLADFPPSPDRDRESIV

Row | SMILES | inhibition at 10 µM [1] | hERG Patch Clamp hERG % blk 1 μm [2] | hERG Patch Clamp hERG % blk 10 μm [2] | inhibition at 1 µM [1]
1 | CS(=O)(=O)Nc1ccc(-c2cccc(C(F)(F)F)c2)cc1 [PT-001, N-[3′-(trifluoromethyl)biphenyl-4-yl]methanesulfonamide] | 58.1% | 10% | 66% | –
2 | COc1cc(NS(C)(=O)=O)ccc1-c1ccc(Cl)c(F)c1 [PT-003, N-(4′-chloro-3′-fluoro-2-methoxybiphenyl-4-yl)methanesulfonamide] | 58.3% | 10% | 28.3% | 11.2%
3 | CS(=O)(=O)Nc1ccc(-c2ccc(C(F)(F)F)cc2)c(C(F)(F)F)c1 [PT-013, N-[2,4′-bis(trifluoromethyl)biphenyl-4-yl]methanesulfonamide] | 54.1% | 10.5% | 29% | –
4 | CS(=O)(=O)Nc1ccc(-c2ccc(Cl)c(F)c2)c(Cl)c1 [PT-017, N-(2,4′-dichloro-3′-fluorobiphenyl-4-yl)methanesulfonamide] | 69.5% | 21% | 80% | 34.8%
5 | CS(=O)(=O)Nc1ccc(-c2ccc(C(F)(F)F)cc2)c(Cl)c1 [PT-018, N-[2-chloro-4′-(trifluoromethyl)biphenyl-4-yl]methanesulfonamide] | 50.6% | 10% | 10% | –
6 | CS(=O)(=O)Nc1ccc(-c2ccccc2OC(F)(F)F)c(Cl)c1 [PT-022, N-[2-chloro-2′-(trifluoromethoxy)biphenyl-4-yl]methanesulfonamide] | 54.8% | 10% | 92% | –
7 | CCS(=O)(=O)Nc1ccc(-c2ccc(Cl)c(F)c2)c(Cl)c1 [PT-026, N-(2,4′-dichloro-3′-fluorobiphenyl-4-yl)ethanesulfonamide] | 78.5% | 10% | 10% | 33.8%
8 | CS(=O)(=O)Nc1ccc(-c2ccc(Oc3ccccc3)cc2)cc1Cl [PT-034, N-(3-chloro-4′-phenoxybiphenyl-4-yl)methanesulfonamide] | 69.7% | 10% | 10% | 25.9%
9 | Cc1cc(NS(C)(=O)=O)ccc1-c1cccc(OC(F)(F)F)c1 [PT-040, N-[2-methyl-3′-(trifluoromethoxy)biphenyl-4-yl]methanesulfonamide] | 68.3% | 10% | 25% | 32.5%
10 | Cc1cc(NS(C)(=O)=O)ccc1-c1ccc(Oc2ccccc2)cc1 [PT-046, N-(2-methyl-4′-phenoxybiphenyl-4-yl)methanesulfonamide] | – | 10% | 28.5% | –
11 | O=S(=O)(Nc1ccc(-c2cccc(OC(F)(F)F)c2)c(Cl)c1)C1CC1 [PT-047, N-[2-chloro-3′-(trifluoromethoxy)biphenyl-4-yl]cyclopropanesulfonamide] | 77.7% | 10% | 28.5% | 48.6%
12 | O=S(=O)(Nc1ccc(-c2ccc(F)c(Cl)c2)c(Cl)c1)C1CC1 [PT-049, N-(2,3′-dichloro-4′-fluorobiphenyl-4-yl)cyclopropanesulfonamide] | 60.1% | 10% | 32% | –
13 | O=S(=O)(Nc1ccc(-c2ccc(OC(F)(F)F)cc2)c(Cl)c1)C1CC1 [PT-050, N-[2-chloro-4′-(trifluoromethoxy)biphenyl-4-yl]cyclopropanesulfonamide] | 61% | 2% | 47.5% | –
14 | O=S(=O)(Nc1ccc(-c2cccc(OC(F)(F)F)c2)cc1)C1CC1 [PT-060, N-[3′-(trifluoromethoxy)biphenyl-4-yl]cyclopropanesulfonamide] | 54.4% | 10% | 35.5% | –
15 | Cc1cc(N(CC(=O)O)S(C)(=O)=O)ccc1-c1ccc(Oc2ccccc2)cc1 [PT-082, N-(2-methyl-4′-phenoxybiphenyl-4-yl)-N-(methylsulfonyl)glycine] | 19.9% | 10% | 10% | –
16 | Cc1cc(N(Cc2ccc(C(=O)O)cc2)S(C)(=O)=O)ccc1-c1ccc(Oc2ccccc2)cc1 [PT-108, 4-{[(2-methyl-4′-phenoxybiphenyl-4-yl)(methylsulfonyl)amino]methyl}benzoic acid] | 55.6% | 10% | 10% | –
17 | Cc1cc(N(Cc2cccc(C(=O)O)c2)S(C)(=O)=O)ccc1-c1ccc(Oc2ccccc2)cc1 [PT-112, 3-{[(2-methyl-4′-phenoxybiphenyl-4-yl)(methylsulfonyl)amino]methyl}benzoic acid] | 35.5% | 10% | 21.5% | –
